Results as given in ChEMBL document CHEMBL1145893, “Three-dimensional quantitative structure-activity relationship analysis of propafenone-type multidrug resistance modulators: influence of variable selection on test set predictivity” (J Med Chem, 2003).
pIC50: −log10 of the molar value.

What follows are molecules tested on CCRF-CEM/VCR-1000 (assay: In vitro multi drug resistance (MDR) reversal inhibitory activity against CCRF-CEM/VCR-1000 cell line). Conditions: Homo sapiens.
Format: functional, cell-based

Row | SMILES | pIC50
1 | CCN(CC)CC(O)COc1ccccc1C(=O)CCc1ccccc1 (stereo not given) | 6.04
2 | O=C(CCc1cccc2ccccc12)c1ccccc1OCC(O)CN1CCCCC1 (stereo not given) | 6.77
3 | O=C(CCc1ccccc1)c1cccc(OCC(O)CN2CCN(c3ccc(F)cc3)CC2)c1 (stereo not given) | 5.95
4 | O=C(CCc1ccccc1)c1cc(O)ccc1OCC(O)CN1CCCCC1 (stereo not given) | 5.64
5 | O=C(CCc1ccccc1)c1ccc(OCC(O)CN2CCCCC2)cc1 (stereo not given) | 5.87
6 | CC(=O)c1ccccc1OCC(O)CN1CCC(O)(c2ccccc2)CC1 (stereo not given) | 5.55
7 | CC(=O)c1ccc(OCC(O)CN2CCN(c3ccc(F)cc3)CC2)cc1 (stereo not given) | 4.92
8 | CC(C)N(CC(O)COc1ccc(O)cc1C(=O)CCc1ccccc1)C(C)C (stereo not given) | 5.98
9 | COc1ccccc1N1CCN(CC(O)c2oc3ccccc3c2CCc2ccccc2)CC1 (stereo not given) | 6.06
10 | O=C(CCc1ccccc1)c1ccc(OCC(O)CN2CCOCC2)cc1 (stereo not given) | 5.16
11 | O=C(CCc1ccccc1)c1cccc(OCC(O)CN2CCCCC2)c1 (stereo not given) | 6.41
12 | CC(C)N(CC(O)COc1ccccc1C(=O)CCc1ccccc1)C(C)C (stereo not given) | 6.51
13 | O=C(CCc1ccccc1)c1ccccc1OCC(O)CNCC(c1ccccc1)c1ccccc1 (stereo not given) | 7.05
14 | O=C(CCc1ccccc1)c1ccccc1OCC(O)CNC(c1ccccc1)c1ccccc1 (stereo not given) | 5.99
15 | CCCNCC(O)c1oc2ccccc2c1CCc1ccccc1 (stereo not given) | 4.24
16 | COC(=O)c1ccc(NCC(O)COc2ccccc2C(=O)CCc2ccccc2)cc1 (stereo not given) | 5.60
17 | O=C(CCc1ccccc1)c1cc(OCc2ccccc2)ccc1OCC(O)CN1CCCCC1 (stereo not given) | 6.77
18 | CC(=O)c1ccc(OCC(O)CN2CCOCC2)cc1 (stereo not given) | 3.52
19 | O=C(CCc1ccccc1)c1ccccc1OCC(O)CN1CCOCC1 (stereo not given) | 5.43
20 | O=C(CCc1ccccc1)c1ccccc1OCC(O)CN1CCN(c2ccccc2)CC1 (stereo not given) | 6.68
21 | CCCNCCc1oc2ccccc2c1CCc1ccccc1 | 5.07
22 | O=C(CCc1ccccc1)c1ccccc1OCC(O)CN1CCN(Cc2ccccc2)CC1 (stereo not given) | 6.42
23 | O=C(CCc1ccccc1)c1ccc(OCC(O)CN2CCN(c3ccc(F)cc3)CC2)cc1 (stereo not given) | 5.60
24 | CC(C)N(CC(O)COc1ccc(OCc2ccccc2)cc1C(=O)CCc1ccccc1)C(C)C (stereo not given) | 7.10

Row | SMILES | pIC50
25 | CCC(=O)c1ccccc1OCC(O)CN1CCCCC1 (stereo not given) | 5.16
26 | COC(CCc1ccccc1)c1ccccc1OCC(O)CN(C(C)C)C(C)C (stereo not given) | 6.18
27 | OC(COc1ccccc1C(O)CCc1ccccc1)CN1CCN(c2ccc(F)cc2)CC1 (stereo not given) | 6.17
28 | CCC(=O)c1ccccc1OCC(O)CN1CCOCC1 (stereo not given) | 3.68
29 | O=C(CCc1ccccc1)c1ccccc1OCC(O)CNCc1ccccc1 (stereo not given) | 6.12
30 | CCCNCC(O)COc1ccccc1C(=O)CCc1ccccc1 (stereo not given) [PROPAFENONE] | 5.97
31 | O=C(c1ccccc1)c1ccccc1OCC(O)CN1CCN(c2ccc(F)cc2)CC1 (stereo not given) | 6.38
32 | CC(=O)c1cccc(OCC(O)CN2CCN(c3ccc(F)cc3)CC2)c1 (stereo not given) | 4.94
33 | COc1ccc(N2CCN(CC(O)COc3ccccc3C(=O)CCc3ccccc3)CC2)cc1 (stereo not given) | 6.74
34 | Cc1ccccc1N1CCN(CC(O)COc2ccccc2C(=O)CCc2ccccc2)CC1 (stereo not given) | 7.30
35 | COC(CCc1ccccc1)c1ccccc1OCC(O)CN1CCOCC1 (stereo not given) | 5.74
36 | COc1ccccc1N1CCN(CC(=O)c2oc3ccccc3c2CCc2ccccc2)CC1 | 4.78
37 | CC(=O)c1ccc(OCC(O)CN2CCCCC2)cc1 (stereo not given) | 4.12
38 | CCCN(C)CC(O)COc1ccccc1C(=O)CCc1ccccc1 (stereo not given) | 6.31
39 | CC(=O)c1cccc(OCC(O)CN2CCCCC2)c1 (stereo not given) | 5.04
40 | CCCNCC(O)c1oc2ccccc2c1CC (stereo not given) | 3.36
41 | CN(C)CC(O)COc1ccccc1C(=O)CCc1ccccc1 (stereo not given) | 5.58
42 | O=C(c1ccccc1)c1ccccc1OCC(O)CN1CCC(O)(c2ccccc2)CC1 (stereo not given) | 6.72
43 | CC(C)N(CC(O)COc1ccccc1C(O)CCc1ccccc1)C(C)C (stereo not given) | 5.76
44 | CCC(=O)c1ccccc1OCC(O)CN1CCC(O)(c2ccccc2)CC1 (stereo not given) | 6.52
45 | COC(CCc1ccccc1)c1ccccc1OCC(O)CN1CCN(c2ccc(F)cc2)CC1 (stereo not given) | 6.64
46 | O=C(CCc1ccccc1)c1ccccc1OCC(O)CNCCC(c1ccccc1)c1ccccc1 (stereo not given) | 6.14
47 | O=C(CCc1ccccc1)c1ccccc1OCC(O)CN1CCC(O)(c2ccccc2)CC1 (stereo not given) | 7.15
48 | CCCNCC(O)COc1ccc(O)cc1C(=O)CCc1ccccc1 (stereo not given) [5-HYDROXY PROPAFENONE] | 5.52

Row | SMILES | pIC50
49 | CC(C)NCCc1oc2ccccc2c1CCc1ccccc1 | 4.69
50 | O=C(CCc1ccccc1)c1ccccc1OCC(O)CNc1ccccc1 (stereo not given) | 5.19
51 | O=C(CCc1ccccc1)c1ccccc1OCC(O)CN1CCCC1 (stereo not given) | 5.74
52 | OC(COc1ccccc1C(O)CCc1ccccc1)CN1CCOCC1 (stereo not given) | 5.02
53 | COC(CCc1ccccc1)c1ccccc1OCC(O)CNCCC(c1ccccc1)c1ccccc1 (stereo not given) | 6.12
54 | CC(=O)c1cccc(OCC(O)CN2CCOCC2)c1 (stereo not given) | 3.93
55 | O=C(CCc1ccccc1)c1ccccc1OCC(O)CN1CCCCC1 (stereo not given) | 6.17
56 | O=C(CCc1cccc2ccccc12)c1ccccc1OCC(O)CN1CCC(O)(c2ccccc2)CC1 (stereo not given) | 7.15
57 | CCCNCC(O)COc1ccc(OCc2ccccc2)cc1C(=O)CCc1ccccc1 (stereo not given) | 6.96
58 | O=C(CCc1cccc2ccccc12)c1ccccc1OCC(O)CN1CCOCC1 (stereo not given) | 6.17
59 | COc1ccccc1N1CCN(CC(O)COc2ccccc2C(=O)CCc2ccccc2)CC1 (stereo not given) | 6.96
60 | CC(C)N(CC(O)COc1ccccc1C(=O)CCc1cccc2ccccc12)C(C)C (stereo not given) | 6.27
61 | CC(C)N(CC(O)COc1ccc(C(=O)CCc2ccccc2)cc1)C(C)C (stereo not given) | 6.04
62 | COC(CCc1ccccc1)c1ccccc1OCC(O)CN1CCCCC1 (stereo not given) | 6.11
63 | O=C(CCc1cccc2ccccc12)c1ccccc1OCC(O)CNCCC(c1ccccc1)c1ccccc1 (stereo not given) | 6.14
64 | O=C(CCc1ccccc1)c1cc(OCc2ccccc2)ccc1OCC(O)CN1CCN(Cc2ccccc2)CC1 (stereo not given) | 6.92
65 | O=C(CCc1ccccc1)c1ccccc1OCC(O)CN1CCN(c2ccc(F)cc2)CC1 (stereo not given) | 6.85
66 | O=C(CCc1ccccc1)c1cc(O)ccc1OCC(O)CN1CCN(Cc2ccccc2)CC1 (stereo not given) | 6.28
67 | CC(=O)c1ccccc1OCC(O)CN1CCN(c2ccc(F)cc2)CC1 (stereo not given) | 5.42
68 | COc1cccc(N2CCN(CC(O)COc3ccccc3C(=O)CCc3ccccc3)CC2)c1 (stereo not given) | 6.92
69 | O=C(CCc1ccccc1)c1ccccc1OCC(O)CNC1CCCCC1 (stereo not given) | 6.47
70 | OC(COc1ccccc1C(O)CCc1ccccc1)CN1CCCCC1 (stereo not given) | 5.87
